Data taken from patent publication US20260218109A1, “CULTURING DEVICE AND METHOD” (METHANE […] LIMITED, priority 2023, published 2026).

Tested on: culture from a ruminant animal foregut
Assay: administration of feed material and methanogenesis inhibitor to culturing device liquor, recording CH4 and dH2 (FIG. 11)
Type: cell-based, sheep
Details: final CHBr3 concentration 6 μM in 1.5 L liquor
Excerpt: FIG. 11 comprises a graph 1101 of the measured temperature on the upper y-axis 1102 shown in degrees Celsius (° C.), the measured CH4 on the middle y-axis 1103 in percentage (%), and the measured dH2 on the lower y-axis 1104 in milli Volts (mV) versus time on the x-axis 1105 measured in hours.
The plot 1106 of CH4 is the output of the SGX methane sensor as described in FIG. 8 800 and the accompanying text.
The plot 1006 of dH2 is the voltage generated by a hydrogen fuel cell as described in FIG. 7 700 and the accompanying text.
The culturing device vessel was inoculated with a culture sourced from a freshly slaughtered grass-fed ewe hogget sheep of mixed breed. After resection of the reticulorumen organ, 2.5 L the rumen content was determined to have a pH Of 6.0 and then transferred to a 5 L jug and mixed with 2.5 L of rainwater. A 0.7 L aliquot of this mixture was used to inoculate the vessel of a culturing device containing 0.8 L of rainwater pre-heated to the culturing device setpoint temperature of about 39° C.
After inoculation, the culturing device was prescribed the movement algorithm described in FIG. 10 1000 above.
As described herein, the vessel of the present examples has an internal volume of about 2.0 L and is typically operated with 1.5 L of liquor and 0.5 L of headspace. […]

Compound: BrC(Br)Br [CHBr3]
- measured CH4 (plot 1106), effect of added CHBr3 (given with daily feed on, 39° C.): decreasing CH4
- measured dH2 (plot 1107, hydrogen fuel cell voltage) (then ceased, dH2 anticipated to increase when methanogenesis is reduced): mirrored in the plot 1107 of the dH2
